According to patent US8765728B2, “[1,5]-diazocin derivatives” (MelliTech, priority 2009, dated 2014):

Test system: Min6 cell
Test: Insulin secretion response of beta cell line to formula I compounds (insulin ELISA)
Assay type: cell-based
Settings: rank according to % increase versus control at most effective dose
Description: The secretory responses of beta cell lines to glucose were tested as described in Merglen et al. Endocrinology, (2004) 145(2):667-78.
Briefly, after incubation with compounds from formula I or control vehicle, cells were maintained for 2 hours in glucose-free culture medium. The cells were then washed twice and preincubated for 30 minutes at 37° C. in glucose-free Krebs-Ringer bicarbonate HEPES buffer (KRBH: 135 mM NaCl, 3.6 mM KCl, 5 mM NaHCO3, 0.5 mM NaH2PO4, 0.5 mM MgCl2, 1.5 mM CaCl2, and 10 mM HEPES, pH 7.4). BSA (0.1%) was added as an insulin carrier. Cells were subsequently washed with glucose-free KRBH and then incubated for 30 minutes at 37° C. in KRBH containing different concentrations of glucose. The reaction was stopped by placing the plates on ice; supernatants were collected to determine insulin secretion and cells were used for intracellular insulin content following acid-ethanol extraction. Insulin was measured by ELISA (Linco) according to the manufacturer's instructions.

| SMILES | Insulin secretion (Min6 cell) Range 1 to 5 |
| --- | --- |
| COc1ccc(OCC(O)CN2CCC(=O)N(C3CC3)Cc3cc(OC)ccc32)cc1 (stereo not shown) [Compound 51, 5-cyclopropyl-1-(2-hydroxy-3-(4-methoxyphenoxy)propyl)-8-methoxy-2,3,5,6-tetrahydrobenzo[b][1,5]diazocin-4(1H)-one] | 2 (2: 110-120% of control) |
| O=C1CCN(CC(O)COc2ccccc2)c2ccc(F)cc2CN1C1CC1 (stereo not shown) [Compound 52, 5-cyclopropyl-8-fluoro-1-(2-hydroxy-3-phenoxypropyl)-2,3,5,6-tetrahydrobenzo[b][1,5]diazocin-4(1H)-one] | 1 (1: 90-110% of control) |
| COc1ccc(OCC(O)CN2CCC(=O)N(C3CC3)Cc3cc(F)ccc32)cc1 (stereo not shown) [Compound 53, 5-cyclopropyl-8-fluoro-1-(2-hydroxy-3-(4-methoxyphenoxy)propyl)-2,3,5,6-tetrahydrobenzo[b][1,5]diazocin-4(1H)-one] | 1 (1: 90-110% of control) |
| COc1ccc2c(c1)CNC(=O)CCN2 [Compound 54, 8-methoxy-2,3,5,6-tetrahydrobenzo[b][1,5]diazocin-4(1H)-one] | 1 (1: 90-110% of control) |
| O=C(CN1CCC(=O)N(C2CC2)Cc2cc(F)ccc21)c1ccc2c(c1)OCCO2 [Compound 55, 5-cyclopropyl-1-(2-(2,3-dihydrobenzo[b][1,4]dioxin-6-yl)-2-oxoethyl)-8-fluoro-2,3,5,6-tetrahydrobenzo[b][1,5]diazocin-4(1H)-one] | 2 (2: 110-120% of control) |
| O=C(CN1CCC(=O)N(C2CC2)Cc2cc(F)ccc21)c1ccc(N2CCCC2)cc1 [Compound 56, 5-cyclopropyl-8-fluoro-1-(2-oxo-2-(4-(pyrrolidin-1-yl)phenyl)ethyl)-2,3,5,6-tetrahydrobenzo[b][1,5]diazocin-4(1H)-one] | 2 (2: 110-120% of control) |
| COc1ccccc1C(O)CN1CCC(=O)N(C2CC2)Cc2cc(F)ccc21 (stereo not shown) [Compound 57, 5-cyclopropyl-8-fluoro-1-(2-hydroxy-2-(2-methoxyphenyl)ethyl)-2,3,5,6-tetrahydrobenzo[b][1,5]diazocin-4(1H)-one] | 2 (2: 110-120% of control) |
| COc1cccc(C(O)CN2CCC(=O)N(C3CC3)Cc3cc(F)ccc32)c1 (stereo not shown) [Compound 58, 5-cyclopropyl-8-fluoro-1-(2-hydroxy-2-(3-methoxyphenyl)ethyl)-2,3,5,6-tetrahydrobenzo[b][1,5]diazocin-4(1H)-one] | 2 (2: 110-120% of control) |
| COc1ccc(C(O)CN2CCC(=O)N(C3CC3)Cc3cc(F)ccc32)cc1 (stereo not shown) [Compound 59, 5-cyclopropyl-8-fluoro-1-(2-hydroxy-2-(4-methoxyphenyl)ethyl)-2,3,5,6-tetrahydrobenzo[b][1,5]diazocin-4(1H)-one] | 2 (2: 110-120% of control) |
| O=C1CCN(CC(O)c2ccc3c(c2)OCCO3)c2ccc(F)cc2CN1C1CC1 (stereo not shown) [Compound 60, 5-cyclopropyl-1-(2-(2,3-dihydrobenzo[b][1,4]dioxin-6-yl)-2-hydroxyethyl)-8-fluoro-2,3,5,6-tetrahydrobenzo[b][1,5]diazocin-4(1H)-one] | 2 (2: 110-120% of control) |
| O=C1CCN(CC(O)c2ccccc2)c2ccc(F)cc2CN1C1CC1 (stereo not shown) [Compound 61, 5-cyclopropyl-8-fluoro-1-(2-hydroxy-2-phenylethyl)-2,3,5,6-tetrahydrobenzo[b][1,5]diazocin-4(1H)-one] | 3 (3: 120-140% of control) |
| O=C1CCNc2cnccc2CN1C1CC1 [Compound 62, 5-cyclopropyl-2,3,5,6-tetrahydropyrido[3,4-b][1,5]diazocin-4(1H)-one] | 2 (2: 110-120% of control) |
| C=CCOc1c(OC)ccc2c1CN(C1CCCC1)C(=O)CCN2CC(=O)O [Compound 63, 2-(7-(allyloxy)-5-cyclopentyl-8-methoxy-4-oxo-3,4,5,6-tetrahydrobenzo[b][1,5]diazocin-1(2H)-yl)acetic acid] | 1 (1: 90-110% of control) |
| O=C1CCN(CC(O)c2ccc(N3CCCC3)cc2)c2ccc(F)cc2CN1C1CC1 (stereo not shown) [Compound 64, 5-cyclopropyl-8-fluoro-1-(2-hydroxy-2-(4-(pyrrolidin-1-yl)phenyl)ethyl)-2,3,5,6-tetrahydrobenzo[b][1,5]diazocin-4(1H)-one] | 5 (5: >170% of control) |
| O=C1CCN(CC(O)COc2ccc(F)cc2)c2ccc(F)cc2CN1C1CC1 (stereo not shown) [Compound 65, 5-cyclopropyl-8-fluoro-1-(3-(4-fluorophenoxy)-2-hydroxypropyl)-2,3,5,6-tetrahydrobenzo[b][1,5]diazocin-4(1H)-one] | 3 (3: 120-140% of control) |
| O=C1CCN(C[C@H](O)COCc2ccccc2)c2ccc(F)cc2CN1C1CC1 [Compound 66, (S)-1-(3-(benzyloxy)-2-hydroxypropyl)-5-cyclopropyl-8-fluoro-2,3,5,6-tetrahydrobenzo[b][1,5]diazocin-4(1H)-one] | 1 (1: 90-110% of control) |

| SMILES | Insulin secretion (Min6 cell) Range 1 to 5 |
| --- | --- |
| COc1ccc2c(c1)CN(C1CC1)C(=O)CCN2C[C@H](O)COCc1ccccc1 [Compound 67, (S)-1-(3-(benzyloxy)-2-hydroxypropyl)-5-cyclopropyl-8-methoxy-2,3,5,6-tetrahydrobenzo[b][1,5]diazocin-4(1H)-one] | 3 (3: 120-140% of control) |
| COc1ccc2c(c1)CN(C1CC1)C(=O)CCN2C[C@@H](O)CO [Compound 68, (R)-5-cyclopropyl-1-(2,3-dihydroxypropyl)-8-methoxy-2,3,5,6-tetrahydrobenzo[b][1,5]diazocin-4(1H)-one] | 3 (3: 120-140% of control) |
| O=C(c1ccc(F)cc1)N1CCC(=O)N(C2CC2)Cc2cc(F)ccc21 [Compound 69, 5-cyclopropyl-8-fluoro-1-(4-fluorobenzoyl)-2,3,5,6-tetrahydrobenzo[b][1,5]diazocin-4(1H)-one] | 1 (1: 90-110% of control) |
| O=C(c1cccnc1)N1CCC(=O)N(C2CC2)Cc2cc(F)ccc21 [Compound 70, 5-cyclopropyl-8-fluoro-1-nicotinoyl-2,3,5,6-tetrahydrobenzo[b][1,5]diazocin-4(1H)-one] | 1 (1: 90-110% of control) |
| O=C(Cc1ccc(F)cc1)N1CCC(=O)N(C2CC2)Cc2cc(F)ccc21 [Compound 71, 5-cyclopropyl-8-fluoro-1-(2-(4-fluorophenyl)acetyl)-2,3,5,6-tetrahydrobenzo[b][1,5]diazocin-4(1H)-one] | 4 (4: 140-170% of control) |
| O=C1CCN(Cc2ccccc2)c2ccc(F)cc2CN1C1CC1 [Compound 72, 1-benzyl-5-cyclopropyl-8-fluoro-2,3,5,6-tetrahydrobenzo[b][1,5]diazocin-4(1H)-one] | 3 (3: 120-140% of control) |
| O=C1CCN(CCc2ccccc2)c2ccc(F)cc2CN1C1CC1 [Compound 73, 5-cyclopropyl-8-fluoro-1-phenethyl-2,3,5,6-tetrahydrobenzo[b][1,5]diazocin-4(1H)-one] | 4 (4: 140-170% of control) |
| O=C1CCN(CCCc2ccccc2)c2ccc(F)cc2CN1C1CC1 [Compound 74, 5-cyclopropyl-8-fluoro-1-(3-phenylpropyl)-2,3,5,6-tetrahydrobenzo[b][1,5]diazocin-4(1H)-one] | 4 (4: 140-170% of control) |
| O=C(c1ccc(F)cc1)N1CCC(=O)N(C2CC2)Cc2cccnc21 [Compound 75, 5-cyclopropyl-1-(4-fluorobenzoyl)-2,3,5,6-tetrahydropyrido[2,3-b][1,5]diazocin-4(1H)-one] | 4 (4: 140-170% of control) |
| O=C(Cc1ccc(F)cc1)N1CCC(=O)N(C2CC2)Cc2cccnc21 [Compound 76, 5-cyclopropyl-1-(2-(4-fluorophenyl)acetyl)-2,3,5,6-tetrahydropyrido[2,3-b][1,5]diazocin-4(1H)-one] | 5 (5: >170% of control) |
| O=C(c1cccnc1)N1CCC(=O)N(C2CC2)Cc2cccnc21 [Compound 77, 5-cyclopropyl-1-nicotinoyl-2,3,5,6-tetrahydropyrido[2,3-b][1,5]diazocin-4(1H)-one] | 5 (5: >170% of control) |
| O=C1CCNc2ccc(Cl)cc2CN1C1CC1 [Compound 78, 8-chloro-5-cyclopropyl-2,3,5,6-tetrahydrobenzo[b][1,5]diazocin-4(1H)-one] | 3 (3: 120-140% of control) |
| O=C1CCN(C[C@@H](O)COCc2ccccc2)c2ccc(Cl)cc2CN1C1CC1 [Compound 79, (R)-1-(3-(benzyloxy)-2-hydroxypropyl)-8-chloro-5-cyclopropyl-2,3,5,6-tetrahydrobenzo[b][1,5]diazocin-4(1H)-one] | 1 (1: 90-110% of control) |
| O=C1CCNc2ccc3c(c2CN1C1CC1)OCCO3 [Compound 80, 11-cyclopropyl-2,3,8,9,11,12-hexahydro[1,4]dioxino[2,3-h][1,5]benzodiazocin-10(7H)-one] | 3 (3: 120-140% of control) |
| O=C1CCN(CC(O)COc2ccccc2)c2ccc(Cl)cc2CN1C1CC1 (stereo not shown) [Compound 81, 8-chloro-5-cyclopropyl-1-(2-hydroxy-3-phenoxypropyl)-2,3,5,6-tetrahydrobenzo[b][1,5]diazocin-4(1H)-one] | 1 (1: 90-110% of control) |
